Data: patent US11453642B2, “Oxygenated amino- or ammonium-containing sulfonic acid, phosphonic acid and carboxylic acid derivatives and their medical use” (GRI BIO, INC., priority 2011, dated 2022)
Where two headings read alike, the source gives them in different places.

Legend:
RBL-2H3 cells = experiment: Maximum tolerated concentration (cytotoxicity by lactate dehydrogenase release); type: cell-based, Rat; settings: for MTC (maximum tolerated concentration): highest concentration not causing cytotoxicity (LDH release), RBL-2H3 cells; for SI (safety index): ratio between MTC and IC50
From the text: The safety index (SI) of a test compound is the ratio between the maximum tolerated concentration and the IC50 and is used as a measure of the relative safety of the test compound.

[1] = Pharmacokinetic study after a single oral administration to mice; type: in vivo; settings: for cmax / tmax: single oral 100 mg/kg in 0.5% methylcellulose; for clast: concentration at last sampling time point; for AUC0-inf: extrapolated to infinity; for tlast: time of last sampling time point; for AUC0-t: time zero to tlast
Procedure: The aim of the study was to evaluate pharmacokinetic (PK) properties of five different batches including anhydrates and monohydrates of the crystal form A of compound 1a (cf. Table 1 in Example 5) after a single oral administration to mice. Three of the forms were anhydrous and two were monohydrates.
Compound 1a was administered as a suspension of 0.5% methyl cellulose (Sigma-Aldrich) in water at a dose of 100 mg/kg (10 ml/kg) by oral gavage to non-fasted female Balb/c mice (n=3).
Blood was collected by decapitation at 0.5, 1, 2, 4, 8, 12, 24, and 48 h after administration. Blood plasma was isolated by centrifugation at 4° C. (20,000×g for 10 min), transferred to microtubes containing lithium-heparin and frozen in aliquots at −70° C. until assayed by mass-spectrometry. Mean plasma concentration-time profiles (semi-logarithmic) of the five polymorphic crystal forms of compound 1a are shown in FIG. 6.
For PK evaluation, summary statistics and plotting of concentration/time curves, all values below the lower limit of quantification (LLOQ) were set to zero.

[2] = female Balb/c mice, single oral 100 mg/kg
[3] = female Balb/c mice, plasma, 100 mg/kg
[4] = female Balb/c mice, single oral 100 mg/kg, 100 mg/kg
[5] = female Balb/c mice, single oral 100 mg/kg, terminal half-life, 100 mg/kg

CCCCCCCCCCCCCC[N+](C)(C)CC(CS(=O)(=O)[O-])OC(C)=O (centres unmarked) [Compound 1e, 2-acetoxy-3-(N,N-dimethyltetradecylammonio)propanesulfonate]
MTC (maximum tolerated concentration) (RBL-2H3 cells): 100 µM
SI (safety index) (RBL-2H3 cells): 25.6

CCCCCCCCCCCCCCCCN(C)CC(O)CS(=O)(=O)O (centres unmarked) [KP-0726.11, 2-hydroxy-3-(N-methylhexadecylammonio)propane-sulfonate]
second plasma peak (time after administration) [1, 2]: 8 h
cmax [1, 3]: 759 ng/mL
tmax [1, 3]: 1.0 h
MRT [1, 4]: 5.5 h
clast [1, 4]: 1.2 ng/mL
AUC0-inf [1, 4]: 3758 ng·h/mL
t1/2 [1, 5]: 8.2 h
tlast [1, 4]: 48.0 h
AUC0-t [1, 4]: 3744 ng·h/mL

CCCCCCCCCCCCCCCCN(C)CC(O)CS(=O)(=O)O (centres unmarked) [2338-CF/30, 2-hydroxy-3-(N-methylhexadecylammonio)propane-sulfonate]
tmax [1, 3]: 1.0 h
clast [1, 4]: 1.8 ng/mL
tlast [1, 4]: 48.0 h
cmax ([1]; female, Balb/c, mouse, plasma, po, 100 mg/kg, female Balb/c mice, plasma, read-out: cmax): 1060 ng/mL
AUC0-inf ([1]; female, Balb/c, mouse, plasma, po, 100 mg/kg, female Balb/c mice, single oral 100 mg/kg, read-out: AUC0-inf): 3140 ng·h/mL
MRT ([1]; female, Balb/c, mouse, plasma, po, 100 mg/kg, female Balb/c mice, single oral 100 mg/kg, read-out: MRT): 5.5 h
half-life ([1]; female, Balb/c, mouse, plasma, po, 100 mg/kg, female Balb/c mice, single oral 100 mg/kg, terminal half-life): 594 min
AUC0-t ([1]; female, Balb/c, mouse, plasma, po, 100 mg/kg, female Balb/c mice, single oral 100 mg/kg, read-out: AUC0-t): 3120 ng·h/mL

CCCCCCCCCCCCCCN(C)CC(O)CS(=O)(=O)O (centres unmarked) [Compound 1b, 2-hydroxy-3-(N-methyltetradecylammonio)propanesulfonate]
MTC (maximum tolerated concentration) (RBL-2H3 cells): 100 µM
SI (safety index) (RBL-2H3 cells): 19.6

CCCCCCCCCCCCCC[N+](C)(C)CC(CS(=O)(=O)[O-])OC (centres unmarked) [Compound 1d, 2-methoxy-3-(N,N-dimethyl-N-tetradecylammonio)-propane-1-sulfonate]
MTC (maximum tolerated concentration) (RBL-2H3 cells): 75 µM
SI (safety index) (RBL-2H3 cells): 22.7

CCCCCCCCCCCCCCCCN(C)CC(O)CS(=O)(=O)O (centres unmarked) [2208-CF/1, 2-hydroxy-3-(N-methylhexadecylammonio)propane-sulfonate]
overall exposure ([1]; compared among the five forms, single oral 100 mg/kg): highest
cmax [1, 3]: 1003 ng/mL
tmax [1, 3]: 1.0 h
MRT [1, 4]: 5.0 h
clast [1, 4]: 1.1 ng/mL
AUC0-inf [1, 4]: 4412 ng·h/mL
t1/2 [1, 5]: 7.3 h
tlast [1, 4]: 48.0 h
AUC0-t [1, 4]: 4400 ng·h/mL

CCCCCCCCCCCCCCCCN(C)CC(O)CS(=O)(=O)O (centres unmarked) [KP-0722.11, 2-hydroxy-3-(N-methylhexadecylammonio)propane-sulfonate]
cmax [1, 3]: 571 ng/mL
tmax [1, 3]: 2.0 h
MRT [1, 4]: 4.8 h
clast [1, 4]: 3.8 ng/mL
AUC0-inf [1, 4]: 3179 ng·h/mL
tlast [1, 4]: 24.0 h
AUC0-t [1, 4]: 3162 ng·h/mL

CCCCCCCCCCCCCCCCN(C)CC(O)CS(=O)(=O)O (centres unmarked) [TN-0382.11, 2-hydroxy-3-(N-methylhexadecylammonio)propane-sulfonate]
second plasma peak (time after administration) [1, 2]: 8 h
cmax [1, 3]: 627 ng/mL
tmax [1, 3]: 1.0 h
MRT [1, 4]: 5.9 h
clast [1, 4]: 3.4 ng/mL
AUC0-inf [1, 4]: 3547 ng·h/mL
tlast [1, 4]: 24.0 h
AUC0-t [1, 4]: 3535 ng·h/mL
